Laboratory results taken from patent US20240124469A1, “PIM KINASE INHIBITOR” (Hangzhou Biosun Pharmaceutical Co., Ltd., priority 2021, published 2024).
Read-outs that look alike come from different tables or passages of the source.

Experiments:
PIM2 = PIM2 (Homo sapiens (Human), UniProt Q9P1W9); experiment: PIM2 kinase activity test (Mobility shift assay); format: biochemical
Experimental: (§1) The efficacy of the compounds on the activity of PIM1/2/3 was tested by utilizing the Mobility shift assay method, with the specific procedures shown as follows: the test compounds were each dissolved in DMSO to be prepared into a 10 mM stock solution; for each of the test compounds, the stock solution was subjected to a 3-fold dilution from an initial concentration of 10 μM to obtain 10 concentrations.
(§2) PIM1, PIM2, and PIM3 (all three kinases are from Carna) were each prepared with 1× Kinase buffer into a kinase solution at a concentration that was 2.5 times the final concentration. 10 μL of kinase solution at a concentration that was 2.5 times the final concentration was added to each of the compound wells and the positive control well, and 10 μL of 1× Kinase buffer was added to the negative control well. The plate was centrifuged at 1000 rpm for 30 s, mixed well by shaking, and then incubated at room temperature for 10 min. A mixed solution of ATP and Kinase substrate 20 (from GL) at a concentration that was 25/15 times the final concentration was prepared with 1× Kinase buffer. The reaction was started by adding 15 μL of the mixed solution of ATP and Kinase substrate 20 at a concentration that was 25/15 times the final concentration. The 384-well plate was centrifuged at 1000 rpm for 30 s, mixed well by shaking, and then incubated at room temperature for 60 min. 30 μL of stop assay buffer was added to stop the kinase reaction. The plate was centrifuged at 1000 rpm for 30 s and mixed well by shaking. The conversion rates were read using Caliper EZ Reader.
(§3) The IC50 values of the test compounds for kinase activity were obtained by adopting a fitted dose-response curve of analytic software GraphPad Prism 5.

PIM3 = PIM3 (Homo sapiens (Human), UniProt Q86V86); experiment: PIM3 kinase activity test (Mobility shift assay); format: biochemical
Experimental: as §1, §2, §3

PIM1 = PIM1 (Homo sapiens (Human), UniProt P11309); experiment: PIM1 kinase activity test (Mobility shift assay); format: biochemical
Experimental: as §1, §2, §3

Ba/F3-EPOR-JAK2-V617F = experiment: Cell inhibitory activity test (72 h CTG); format: cell-based
Experimental: The EPOR-JAK2-V617F gene was transferred into Ba/F3 wild-type cells by a retrovirus packaging system to obtain a stably transfected cell line Ba/F3-EPOR-JAK2-V617F, which was used for the cell inhibitory activity ICso test of the compounds (reference: Blood. 2010; 115(15): 3109-3117). The specific procedures were as follows: • Cells were seeded in a 96-well plate, treated with the test compounds from DMSO stock solutions (final concentration of DMSO is 0.2%), and cultured at 37° C. with 5% CO2 for 72 h. Then, the cell proliferation inhibitory activity was assayed by the CTG (Cell-Titer Glo) method. For each of the test compounds, the stock solution was subjected to a 3-fold dilution from an initial concentration of 10 μM to obtain 9 concentrations. The dose-response relationship curve was fitted by using Graphpad 7.0 analysis software, and IC50 values were obtained.

Pharmacokinetic test = format: in vivo; details: BALB/c mice; for AUC(0-t) / clearance / half-life / Vd / Cmax / Tmax: female, mouse, plasma; for half-life: read-out: Terminal t1/2 (converted); for Vd: read-out: Vss
Experimental: Experimental animals: BALB/c mice, female; weight: 19-25 g.
Preparation of test sample: the target compound was prepared into solutions at 0.4 mg/mL (for intravenous administration) and 5.0 mg/mL (for oral administration) for later use. Route of administration: oral administration/intravenous injection. Dosing volume and frequency: 5 mL/kg (intravenous injection) or 10 mL/kg (oral administration), single dose.
Sample collection: blood was collected at the following time points: 5 min, 15 min, 30 min, 1 hr, 2 hr, 4 hr, 8 hr, and 24 hr after the administration.
Sample analysis: the collected samples were detected by using an LC-MS/MS method. The model of the instrument used was AB Sciex 5500.
Pharmacokinetic data analysis: the resulting plasma concentration data were fitted and calculated according to a non-compartmental model.

PIM2, sequence (Q9P1W9 whole entry): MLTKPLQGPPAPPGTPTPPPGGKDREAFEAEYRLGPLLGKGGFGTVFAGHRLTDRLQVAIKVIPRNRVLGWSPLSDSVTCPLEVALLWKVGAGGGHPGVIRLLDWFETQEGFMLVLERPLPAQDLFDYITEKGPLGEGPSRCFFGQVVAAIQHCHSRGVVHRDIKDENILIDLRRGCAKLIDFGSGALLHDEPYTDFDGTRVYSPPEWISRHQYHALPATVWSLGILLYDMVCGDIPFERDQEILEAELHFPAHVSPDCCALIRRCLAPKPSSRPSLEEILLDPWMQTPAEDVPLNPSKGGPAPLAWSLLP
PIM1, sequence (P11309 whole entry): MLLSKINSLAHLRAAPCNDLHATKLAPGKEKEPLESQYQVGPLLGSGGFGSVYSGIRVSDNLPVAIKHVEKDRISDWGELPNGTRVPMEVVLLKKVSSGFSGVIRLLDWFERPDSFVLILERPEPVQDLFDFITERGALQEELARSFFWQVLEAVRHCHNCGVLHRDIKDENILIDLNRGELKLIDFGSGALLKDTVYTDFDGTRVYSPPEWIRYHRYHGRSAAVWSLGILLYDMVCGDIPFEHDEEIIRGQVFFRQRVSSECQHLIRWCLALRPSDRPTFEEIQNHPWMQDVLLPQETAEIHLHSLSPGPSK

Row | SMILES | IC50 (PIM2) [nM] | IC50 (PIM3) [nM] | IC50 (PIM1) [nM] | IC50 (Ba/F3-EPOR-JAK2-V617F) [nM] | F (Pharmacokinetic test; oral administration, 50 mg/kg) [%] | AUC(0-t) (Pharmacokinetic test; intravenous injection, 2 mg/kg) [ng·h/mL] | clearance (Pharmacokinetic test; intravenous injection, 2 mg/kg) [mL/min/kg] | half-life (Pharmacokinetic test; intravenous injection, 2 mg/kg) [h] | Vd (Pharmacokinetic test; intravenous injection, 2 mg/kg) [L/kg] | AUC(0-t) (Pharmacokinetic test; oral administration, 50 mg/kg) [ng·h/mL] | Cmax (Pharmacokinetic test; oral administration, 50 mg/kg) [ng/mL] | Tmax (Pharmacokinetic test; oral administration, 50 mg/kg) [h] | half-life (Pharmacokinetic test; oral administration, 50 mg/kg) [h]
1 | CC(C)(O)[C@H]1CC[C@H](Nc2ccc3ncc(-c4ccc(C(F)(F)F)s4)n3n2)CC1 [Compound 20, 2-((1r,4r)-4-4-((3-(5-(trifluoromethyl)thiophen-2-yl)imidazo[1,2-b]pyridazin-6-yl)amino)cyclohexyl)propan-2-ol] | 100 to 1000 | 10 to 100 | < 2 | < 50 | 66.6 | 1090 | 31 | 1.06 | 1.85 | 18100 | 3980 | 1.33 | 3.5
2 | OC[C@@H]1CC[C@@H](Nc2ccc3ncc(-c4ccc(C(F)(F)F)s4)n3n2)CO1 [Compound 46, [(2S,5R)-5-[[3-[5-(trifluoromethyl)-2-thienyl]imidazo[1,2-b]pyridazin-6-yl]amino]tetrahydropyran-2-yl]methanol] | 1000 to 10000 | 100 to 1000 | 2 to 10 | 100 to 150 | 89.9 | 523 | 65.8 | 0.26 | 1.47 | 11800 | 10600 | 0.5 | 0.91
3 | OC12CCC(Nc3ccc4ncc(-c5ccc(C(F)(F)F)s5)n4n3)(CC1)CC2 [Compound 29, 4-[[3-[5-(trefluoromethyl)-2-thienyl]imidazo[1,2-b]pyridazin-6-yl]amino]bicyclo [2.2.2] octan-1-ol] | 10 to 100 | 10 to 100 | < 2 | < 50 | 35.7 | 859 | 39.7 | 0.42 | 1.38 | 7650 | 6670 | 0.33 | 1.41
4 | CC(C)(O)[C@H]1CC[C@H](Nc2ccc3ncc(-c4cccc(C(F)(F)F)c4)n3n2)CC1 [TP-3654, reference compound] | 100 to 1000 | 100 to 1000 | 10 to 100 | > 150 | 42.3 | 652 | 51.8 | 1.24 | 5.58 | 6800 | 2550 | 1 | 1.33
